Experimental data: patent publication US8563516B2, “Foxp3 peptide vaccine” (OncoTherapy Science, Inc., priority 2007, dated 2013)

Assays:
peptide-pulsed T2 cells = test: IFN-gamma ELISPOT on CTLs induced with HLA-A0201 restricted Foxp3 peptides; type: cell-based, human; details: FIG. 2A/2B/2C
Source text: (§1) Monocyte-derived dendritic cells (DCs) were used as antigen-presenting cells (APCs) to induce CTL responses against peptides presented on HLA. DCs were generated in vitro as described elsewhere (Horiguchi S. et al. Cancer Res. 59:2950-6). Specifically, peripheral blood mononuclear cells (PBMCs) isolated from normal volunteer (HLA-A*2402 and/or HLA-A*0201) with Ficoll-Plaque (Pharmacia) solution were separated by adherence to plastic tissue culture dish (Becton Dickinson) so as to enrich them for the monocyte fraction. The monocyte-enriched population was cultured in the presence of 1000 U/ml of GM-CSF (R&D System) and 1000 U/ml of IL-4 (R&D System) in AIM-V medium (Invitrogen) containing 2% heat-inactivated autologous serum (AS). After 7 days in the culture, the cytokine-generated DCs were pulsed with 20 mcg/ml of the synthesized peptides in the presence of 3 mcg/ml of beta2-microglobulin for 4 hrs at 20 degrees C. in AIM-V medium. These peptide-pulsed DCs were then inactivated with mitomycin C (MMC) (30 mcg/ml for 30 mins) and mixed at a 1:20 ratio with autologous CD8+ T cells, obtained by positive selection with CD8 Positive Isolation Kit (Dynal). These cultures were set up in 48-well plates (Corning); each well contained 1.5×10^4 peptide-pulsed DCs, 3×10^5 CD8+ T cells and 10 ng/ml of IL-7 (R&D System) in 0.5 ml of AIM-V/2% AS. Three days later, these cultures were supplemented with IL-2 (CHIRON) to a final concentration of 20 IU/ml. On day 7 and 14, the T cells were further restimulated with the peptide-pulsed autologous DCs. The DCs were prepared each time through the same procedure described above. CTL activity was tested against peptide-pulsed A24LCL cells or T2 cells after the 3rd round of peptide stimulation on day 21.
(§2) To examine the specific CTL activity, IFN-gamma ELISPOT assay and IFN-gamma ELISA were performed. Briefly, peptide-pulsed A24-LCL, T2 cell (1×10^4/well) or the cells endogenously expressing Foxp3 and HLA molecule was prepared as a stimulator cells. Cultured CTL lines in 48 wells were used as a responder cells. IFN-gamma ELISPOT assay and IFN-gamma ELISA were performed under manufacture procedure.
Resulting CTLs showing detectable specific CTL activity were shown in FIG. 2A, FIG. 2B and FIG. 2C when performed by IFN-gamma ELISPOT assay.

[1] = test system: peptide-pulsed A24LCL cells or T2 cells; test: In vitro CTL induction by peptide-loaded dendritic cells (summary statements); type: cell-based, human; details: for specific CTL activity: against peptide pulsed target cells; for establishment of CTLs: in vitro stimulation of T-cells by DCs loaded with peptide
Source text: Confirmation of CTL inducibility can be accomplished by inducing antigen-presenting cells carrying human MHC antigens (for example, B-lymphocytes, macrophages, and dendritic cells), or more specifically dendritic cells derived from human peripheral blood mononuclear leukocytes, and after stimulation with the peptides, mixing with CD8-positive cells, and then measuring the IFN-gamma produced and released by CTL against the target cells. As the reaction system, transgenic animals that have been produced to express a human HLA antigen (for example, those described in BenMohamed L, Krishnan R, Longmate J, Auge C, Low L, Primus J, Diamond D J, Hum Immunol 61(8): 764-79, 2000 August, Related Articles, Books, Linkout Induction of CTL response by a minimal epitope vaccine in HLA A*0201/DR1 transgenic mice: dependence on HLA class II restricted T(H) response) can be used. For example, the target cells can be radiolabeled with ^51Cr and such, and cytotoxic activity can be calculated from radioactivity released from the target cells. Alternatively, it can be examined by measuring IFN-gamma produced and released by CTL in the presence of antigen-presenting cells that carry immobilized peptides, and visualizing the inhibition zone on the media using anti-IFN-gamma monoclonal antibodies.
as §1, §2

[2] = test system: peptide-pulsed A24LCL cells; test: IFN-gamma ELISPOT on CTLs induced with HLA-A2402 restricted Foxp3 peptides; type: cell-based, human; details: FIG. 1A/1B
Source text: as §1, §2
CTLs for the peptides derived from Foxp3 protein were generated according to the method described in the “Materials and Methods”, supra.

HLA-A2 molecule = target: T1, HLA-A2 molecule (Homo sapiens, UniProt P04439, D140Y/D185E/D98H/E176V/E277Q/G131W/G231S/I119V/I121R/I166T/I218V/L300P/L318F/N151K/N90K/P208A/P217A/Q86G/Q94H/R138H/R169H/T345S); test: CTL induction with Foxp3-9-252 substitutions restricted HLA-A*0201; type: cell-based; details: FIG. 7C; for IFN-gamma production compared with the control: positive wells
T1 construct: peripheral blood mononuclear cells (PBMCs) isolated from normal volunteer (HLA-A*2402 and/or HLA-A*0201); endogenous in cells; host or cells: monocyte-derived dendritic cells of HLA-A*0201 volunteers; T2 cells as stimulators in the read-out
Protocol: In FIG. 7C CTLs could be induced by stimulation with Foxp3-9-252 substitutions targeted HLA-A2 molecule. CTLs for all substituted peptides targeted HLA-A2 molecule were generated in the way as described in “Materials and Methods”. […] CTL line induced with Foxp3-9-252-9V peptide was used as responder cells. T2 cells incubated with Foxp3-9-252-9V (-solid circle-) or Foxp3-9-252-WT (-open circle-) peptide and without any peptide (-open square-) were used as stimulator cells in this assay (1×10^4 cells/well).
as §1, §2
On the other hand, the present inventers attempted the induction of CTLs using all substitutions restricted HLA-A*0201 including Foxp3-9-252-9V peptide. […] After CTL line induced by stimulation with Foxp3-9-252-9V was established by in vitro expansion, the CTL activity was determined by using stimulator cells pulsed with Foxp3-9-252-WT or Foxp3-9-252-9V peptide.

## GINVASLEWV (peptide vaccine) [SEQ ID NO 29]
peptide-pulsed T2 cells
  IFN-gamma production of CTLs stimulated with peptide, compared with the control: potent IFN-gamma production
[1]
  specific CTL activity: significant and specific CTL activity
  establishment of CTLs: CTLs were successfully established

## IYHWFTRMF (peptide vaccine) [SEQ ID NO 3]
[1]
  specific CTL activity: significant and specific CTL activity
  establishment of CTLs: CTLs were successfully established
[2]
  IFN-gamma production of CTLs stimulated with peptide, compared with the control: potent IFN-gamma production

## KFHNMRPPF (peptide vaccine) [SEQ ID NO 5]
[1]
  specific CTL activity: significant and specific CTL activity
  establishment of CTLs: CTLs were successfully established
[2]
  IFN-gamma production of CTLs stimulated with peptide, compared with the control: potent IFN-gamma production

## KLLAMQAHL (peptide vaccine) [SEQ ID NO 98]
HLA-A2 molecule
  CTL induction by stimulation with substituted peptide: CTLs were induced
HLA-A2 molecule; listed as Foxp3-9-252-3L
  IFN-gamma production compared with the control: showed IFN-gamma production
HLA-A2 molecule; listed as Foxp3-A02-9-252-3L
  IFN-gamma production compared with the control: peptide-dependent IFN-gamma production

## KLMAMQAHL (peptide vaccine) [SEQ ID NO 97]
HLA-A2 molecule
  CTL induction by stimulation with substituted peptide: CTLs were induced
HLA-A2 molecule; listed as Foxp3-9-252-3M
  IFN-gamma production compared with the control: showed IFN-gamma production
HLA-A2 molecule; listed as Foxp3-A02-9-252-3M
  IFN-gamma production compared with the control: peptide-dependent IFN-gamma production

## KMALTKASSV (peptide vaccine) [SEQ ID NO 24]
peptide-pulsed T2 cells
  IFN-gamma production of CTLs stimulated with peptide, compared with the control: potent IFN-gamma production
[1]
  specific CTL activity: significant and specific CTL activity
  establishment of CTLs: CTLs were successfully established

## LLQREMVQSL (peptide vaccine) [SEQ ID NO 28]
peptide-pulsed T2 cells
  IFN-gamma production of CTLs stimulated with peptide, compared with the control: potent IFN-gamma production
[1]
  specific CTL activity: significant and specific CTL activity
  establishment of CTLs: CTLs were successfully established

## LQLPTLPLV (peptide vaccine) [SEQ ID NO 16]
peptide-pulsed T2 cells
  IFN-gamma production of CTLs stimulated with peptide, compared with the control: potent IFN-gamma production
[1]
  specific CTL activity: significant and specific CTL activity
  establishment of CTLs: CTLs were successfully established

## LVLEKEKLSA (peptide vaccine) [SEQ ID NO 37]
peptide-pulsed T2 cells
  IFN-gamma production of CTLs stimulated with peptide, compared with the control: potent IFN-gamma production
[1]
  specific CTL activity: significant and specific CTL activity
  establishment of CTLs: CTLs were successfully established

## QLQLPTLPL (peptide vaccine) [SEQ ID NO 18]
peptide-pulsed T2 cells
  IFN-gamma production of CTLs stimulated with peptide, compared with the control: potent IFN-gamma production
[1]
  specific CTL activity: significant and specific CTL activity
  establishment of CTLs: CTLs were successfully established

## RPPFTYATL (peptide vaccine) [SEQ ID NO 8]
[1]
  specific CTL activity: significant and specific CTL activity
  establishment of CTLs: CTLs were successfully established
[2]
  IFN-gamma production of CTLs stimulated with peptide, compared with the control: potent IFN-gamma production

## RTPVLQVHPL (peptide vaccine) [SEQ ID NO 12]
[1]
  specific CTL activity: significant and specific CTL activity
  establishment of CTLs: CTLs were successfully established
[2]
  IFN-gamma production of CTLs stimulated with peptide, compared with the control: potent IFN-gamma production

## SLFAVRRHL (peptide vaccine) [SEQ ID NO 19]
peptide-pulsed T2 cells
  IFN-gamma production of CTLs stimulated with peptide, compared with the control: potent IFN-gamma production
[1]
  specific CTL activity: significant and specific CTL activity
  establishment of CTLs: CTLs were successfully established

## SYPLLANGV (peptide vaccine) [SEQ ID NO 9]
[1]
  specific CTL activity: significant and specific CTL activity
  establishment of CTLs: CTLs were successfully established
[2]
  IFN-gamma production of CTLs stimulated with peptide, compared with the control: potent IFN-gamma production

## TLNEIYHWFT (peptide vaccine) [SEQ ID NO 22]
peptide-pulsed T2 cells
  IFN-gamma production of CTLs stimulated with peptide, compared with the control: potent IFN-gamma production
[1]
  specific CTL activity: significant and specific CTL activity
  establishment of CTLs: CTLs were successfully established

## VFEEPEDFL (peptide vaccine) [SEQ ID NO 4]
[1]
  specific CTL activity: significant and specific CTL activity
  establishment of CTLs: CTLs were successfully established
[2]
  IFN-gamma production of CTLs stimulated with peptide, compared with the control: potent IFN-gamma production

## VMVAPSGARL (peptide vaccine) [SEQ ID NO 30]
peptide-pulsed T2 cells
  IFN-gamma production of CTLs stimulated with peptide, compared with the control: potent IFN-gamma production
[1]
  specific CTL activity: significant and specific CTL activity
  establishment of CTLs: CTLs were successfully established

## WFTRMFAFF (peptide vaccine) [SEQ ID NO 7]
[1]
  specific CTL activity: significant and specific CTL activity
  establishment of CTLs: CTLs were successfully established
[2]
  IFN-gamma production of CTLs stimulated with peptide, compared with the control: potent IFN-gamma production
